The values that follow come from patent US11242539B2, “Elite event EE-GM4 and methods and kits for identifying such event in biological samples” (priority 2016, dated 2022).

The test system of this data set is soybean plants containing event EE-GM4. The data set is described as follows: HPPD inhibitor herbicide tolerance field trials (maximum phytotoxicity). Type of data set: in vivo, Glycine max. The following applies: for average maximum phytotoxicity value: several field trials across 2 years; for tolerance of plants with EE-GM4 to herbicide: field. The text has this: Numbers in ( ) below a treatment give the number of trials included in the bar, the number on top of each bar gives the average maximum phytotoxicity value for that treatment. Treatments applied were: IFT=isoxaflutole, MST=mesotrione, PE=pre-emergence, PO=post-emergence (at V2-V3 stage, with adjuvants crop oil concentrate and ammonium sulfate added to increase herbicide activity). Rates shown are in gram active ingredient/hectare (4× dose in pre-emergence, 2× dose in post-emergence).
Tolerance of plants comprising EE-GM4 to HPPD inhibitor herbicides was tested at different locations in the field over 2 years. […] All post-emergence treatments were at the V2-V3 stage, with adjuvants crop oil concentrate and ammonium sulfate added to increase herbicide activity.
The “maximum phytotoxicity” as used herein is the highest phytotoxicity rating recorded at any observation during the duration of a trial (with 3 to 4 observations per trial). In existing weed control applications, a normal (lx) dose for isoxaflutole (IFT) in pre- or post-emergence application and for MST in post-emergence application is 105 gr/ha, and a normal (1×) dose for mesotrione in pre-emergence application is 210 gr/ha.
Also, in several field trials across 2 years, soybean plants with event EE-GM4 had good tolerance towards experimental HPPD inhibitor compound 2-methyl-N-(5-methyl-1,3,4-oxadiazol-2-yl)-3-(methylsulfonyl)-4-(trifluoromethyl)benzamide (U.S. Pat. No. 9,101,141) when applied pre-emergence at 400 gr ai/ha or post-emergence at 200 gr ai/ha, respectively (the average maximum phytotoxicity value for each treatment was below 20%). […] All post-emergence treatments were at the V2-V3 stage, with adjuvants crop oil concentrate and ammonium sulfate added to increase herbicide activity.

Where [1] appears, read: applied post-emergence at V2-V3 stage with crop oil concentrate and ammonium sulfate, over 2 years.
[2] abbreviates: applied pre-emergence, different locations over 2 years.

With `CSc1c(C(F)(F)F)ccc(C(=O)Nc2nnnn2C)c1Cl` [2-chloro-3-(methylsulfanyl)-N-(1-methyl-1H-tetrazol-5-yl)-4-(trifluoromethyl)benzamide], the average maximum phytotoxicity (post-emergence at 100-150 gr ai/ha, V2-V3 stage with adjuvants) amounted to 30%.

As to `Cc1nnc(NC(=O)c2ccc(C(F)(F)F)c(S(C)(=O)=O)c2C)o1` [2-methyl-N-(5-methyl-1,3,4-oxadiazol-2-yl)-3-(methylsulfonyl)-4-(trifluoromethyl)benzamide], the “average maximum phytotoxicity value” reads like this: (post-emergence at 200 gr ai/ha, V2-V3 stage with adjuvants) “below 20%”; (pre-emergence at 400 gr ai/ha) “below 20%”. As to `CS(=O)(=O)c1cc(C(F)(F)F)ccc1C(=O)c1cnoc1C1CC1` [isoxaflutole, (5-cyclopropyl-4-isoxazolyl)[2-(methylsulfonyl)-4-(trifluoromethyl)phenyl]methanone], the “tolerance of plants with EE-GM4 to herbicide” value is “crop damage was a bit higher” under setting [1] and “commercially relevant tolerance” under setting [2]. In the case of `CS(=O)(=O)c1ccc(C(=O)C2C(=O)CCCC2=O)c([N+](=O)[O-])c1` [mesotrione, 2-[4-(Methylsulfonyl)-2-nitrobenzoyl]cyclohexane-1,3-dione], the “tolerance of plants with EE-GM4 to herbicide” value reads like this: under setting [1], “commercially relevant tolerance”; under setting [2], “commercially relevant tolerance”.
